From the supplement of paper PMC10307832

Key:
Test in all cases: relative viability (nuclei count vs DMSO), 5 days (fraction); higher = more cells survive
[1] = compound: C1COCCN1C2=NC(=NC3=C2OC4=C3C=CC=N4)C5=CC(=CC=C5)NC(=O)C6=CN=C(C=C6)N + Cc1nc(Nc2ncc(C(=O)Nc3c(C)cccc3Cl)s2)cc(N2CCN(CCO)CC2)n1 [Dasatinib] (partner 0.075 µM)
How it was run: (§1)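 Cells from lung cancer lines were seeded into 1536-well plates and, one day later, dosed by pin tool. Treatments were either a single drug or a fixed dose of an anchor drug with five library-drug doses (not always all listed) in √10 steps. After 5 days, nuclei were stained in a one-step fixation (final 0.05% Triton X-100, 1% formaldehyde, 1 ug/ml Hoechst) and counted on 4× images, and relative viability is the treated-to-vehicle nuclei ratio, as the median of duplicate plates.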

[2] = compound: CN1CCC(CNc2ccc3ncc(-c4cccc(OC(F)(F)F)c4)n3n2)CC1 [SGI-1776] + Cc1nc(Nc2ncc(C(=O)Nc3c(C)cccc3Cl)s2)cc(N2CCN(CCO)CC2)n1 [Dasatinib] (partner 0.075 µM)
How it was run: as §1

[3] = compound: Nc1ccccc1NC(=O)c1ccc(CNC(=O)OCc2cccnc2)cc1 [Entinostat] + CS(=O)(=O)CCNCc1ccc(-c2ccc3ncnc(Nc4ccc(OCc5cccc(F)c5)c(Cl)c4)c3c2)o1 [Lapatinib] (partner 2 µM)
How it was run: as §1

[4] = compound: Nc1ccccc1NC(=O)c1ccc(CNC(=O)OCc2cccnc2)cc1 [Entinostat] + N=C(N)NC(=N)NCCc1ccccc1 [Phenformin] (partner 250 µM)
How it was run: as §1

Cell Line	relative viability ([1]; first compound 0.02 µM)	relative viability ([1]; first compound 0.06325 µM)	relative viability ([1]; first compound 0.2 µM)	relative viability ([1]; first compound 0.6325 µM)	relative viability ([1]; first compound 2 µM)	relative viability ([2]; first compound 0.08 µM)	relative viability ([2]; first compound 0.8 µM)	relative viability ([2]; first compound 2.53 µM)	relative viability ([2]; first compound 8 µM)	relative viability ([3]; first compound 0.02 µM)	relative viability ([3]; first compound 0.06325 µM)	relative viability ([3]; first compound 0.2 µM)	relative viability ([3]; first compound 0.6325 µM)	relative viability ([3]; first compound 2 µM)	relative viability ([4]; first compound 0.02 µM)	relative viability ([4]; first compound 0.06325 µM)	relative viability ([4]; first compound 0.2 µM)	relative viability ([4]; first compound 0.6325 µM)	relative viability ([4]; first compound 2 µM)
NCI-H1734	0.502	0.544	0.436	0.397	0.262	0.55	0.426	0.441	0.434	1.16	1.11	1.05	0.787	0.481	0.439	0.509	0.488	0.342	0.315
NCI-H1651	0.482	0.461	0.39	0.4	0.22	0.535	0.378	0.381	0.312	0.816	0.905	0.925	0.726	0.217	0.326	0.371	0.453	0.335	0.185
NCI-H838	0.291	0.299	0.271	0.314	0.249	0.282	0.275	0.256	0.257	1.13	1.12	0.983	0.696	0.255	0.706	0.852	0.677	0.426	0.198
NCI-H1915	0.277	0.329	0.331	0.349	0.264	0.315	0.273	0.29	0.261	0.985	1.05	1.01	0.633	0.315	0.375	0.346	0.372	0.261	0.256
COR-L23	0.505	0.604	0.451	0.472	0.327	0.514	0.546	0.464	0.322	0.967	0.995	0.905	0.579	0.176	0.433	0.429	0.389	0.245	0.144
HOP-62	0.765	0.743	0.547	0.574	0.323	0.724	0.679	0.531	0.597	1.12	0.994	0.907	0.532	0.323	0.614	0.6	0.773	0.412	0.266
NCI-H1975	0.362	0.388	0.298	0.296	0.187	0.385	0.369	0.253	0.232	0.812	0.801	0.669	0.274	0.189	0.376	0.348	0.342	0.238	0.19
BEN	0.309	0.297	0.334	0.371	0.325	0.399	0.313	0.285	0.302	0.894	0.743	0.562	0.373	0.219	0.247	0.267	0.258	0.238	0.254
NCI-H1563	0.505	0.453	0.437	0.461	0.578	0.446	0.474	0.457	0.453	0.915	1.01	0.891	0.821	0.581	0.76	0.646	0.714	0.669	0.607
EMC-BAC-2	0.334	0.378	0.317	0.356	0.294	0.361	0.284	0.314	0.288	0.873	0.956	0.901	0.682	0.499	0.523	0.533	0.449	0.416	0.293
NCI-H650	0.475	0.453	0.416	0.442	0.385	0.492	0.497	0.434	0.37	1.02	1.24	0.976	0.543	0.199	0.491	0.466	0.431	0.455	0.318
LU99A	0.538	0.533	0.37	0.347	0.182	0.727	0.56	0.382	0.441	0.957	1.04	0.863	0.617	0.592	0.783	0.891	0.722	0.609	0.545
NCI-H2347	0.291	0.257	0.349	0.321	0.323	0.346	0.319	0.306	0.265	1.05	0.983	0.784	0.502	0.369	0.378	0.243	0.234	0.181	0.151
NCI-H2009	0.245	0.278	0.215	0.219	0.215	0.373	0.291	0.231	0.15	0.954	0.984	0.827	0.685	0.396	0.466	0.499	0.468	0.418	0.304
HCC-827	0.282	0.294	0.414	0.233	0.308	0.352	0.33	0.255	0.227	0.18	0.184	0.126	0.147	0.17	0.397	0.381	0.395	0.357	0.275
NCI-H661	0.88	0.853	0.688	0.736	0.64	1	0.979	0.837	0.692	0.573	0.587	0.8	0.661	0.476	0.281	0.266	0.303	0.269	0.192
CAL-12T	0.467	0.519	0.396	0.324	0.338	0.633	0.351	0.348	0.246	0.606	0.762	0.55	0.501	0.466	0.649	0.581	0.593	0.523	0.325
PC-14	0.229	0.229	0.218	0.138	0.175	0.267	0.256	0.0958	0.0261	0.293	0.29	0.146	0.151	0.105	0.761	0.61	0.662	0.309	0.076
NCI-H23	0.82		0.582	0.724	0.482	0.819	0.84	0.813	0.831	1.17	1.13	1.02	0.616	0.476	0.71	0.667	0.796	0.762	0.501
SK-LU-1	0.153	0.188	0.168	0.176	0.16	0.171	0.183	0.169	0.116	0.825	0.775	0.55	0.573	0.516	0.579	0.693	0.497	0.398	0.362
NCI-H727	0.388	0.351	0.295	0.442	0.345	0.4	0.426	0.351	0.356	0.941	0.804	0.793	0.533	0.451	0.457	0.689	0.581	0.436	0.43
HCC-366	0.647	0.745	0.691	0.576	0.26	0.595	0.669	0.517	0.524	1.02	1.04	0.66	0.218	0.0452	0.578	0.61	0.582	0.451	0.186
SW 1573	0.401	0.565	0.458	0.378	0.247	0.457	0.456	0.457	0.295	1.42	1.23	1.19	1.29	0.949	0.38	0.483	0.41	0.45	0.382
A-427	0.805	0.77	0.61	0.648	0.589	0.736	0.693	0.665	0.499	1.16	1.08	1.07	0.983	0.83	0.365	0.327	0.368	0.318	0.266
ABC-1	0.586	0.612	0.523	0.587	0.54	0.502	0.613	0.508	0.465	1.43	1.38	1.56	1.38	1.21	0.215	0.267	0.263	0.268	0.215
LK-2	0.253	0.284	0.245	0.245	0.283	0.301	0.354	0.253	0.173	0.98	1.05	1.01	0.476	0.459	0.497	0.761	0.576	0.383	0.32
NCI-H2085	0.223	0.252	0.25	0.204	0.258	0.248	0.264	0.243	0.201	0.748	0.825	0.744	0.545	0.443	0.716	0.774	0.706	0.461	0.375
NCI-H647	0.196	0.2	0.174	0.164	0.0709	0.188	0.184	0.111	0.117	0.936	0.868	0.996	0.322	0.101	0.54	0.555	0.405	0.158	0.0748
